Source: US20240294535A1, “IMIDAZOTRIAZINE THIOBENZAMIDE DERIVATIVE, AND PREPARATION METHOD AND APPLICATION THEREOF” (Yunbaiyao Zhengwu Science and Technology (Shanghai) Co., …, priority 2023, published 2024)
Where two headings read alike, the source gives them in different places.

Legend:
Hs746T cells = test: Anti-proliferation activity, CTG, Hs746T cells; format: cell-based
Protocol: (§1) Experimental objective: To evaluate the anti-proliferation activities of the compounds against MKN-45 cells, EBC-1 cells, Hs746T cells and Vero cells.
(§2) Experimental methods: Tumor cell lines were cultured and periodically passaged, and cells in logarithmic growth phase were taken for plate spreading. The cells were stained with Trypan blue, counted and adjusted to an appropriate density. 50 μL of cell suspension was added into each well of a culture plate, and 50 μL of nutrient solution without cells was added into a blank control well. The culture plate was precultured for 24 h in an incubator under the condition of 37° C., 5% CO2 and 100% relative humidity.
(§3) The DMSO stock solutions of the compounds 1-28 and Capmatinib were prepared, and diluted with Tecan D300e. Each compound was diluted to 7 concentration levels: 0.50 μM, 0.125 μM, 0.031 μM, 0.0078 μM, 0.0020 μM, 0.00049 μM, 0.00012 μM. The experiment was carried out in triplicate.
(§4) 50 μL of the solution was added into each designated well, and the culture plate was incubated for 48 h. 50 μL of CTG working solution was added to each well. The culture plate was wrapped with aluminum foil to avoid light and shaken in the shaker for 2 min to induce cell lysis. The culture plate was placed at room temperature for 10 min to stabilize light-emitting signal which was detected with a 2014 EnVision plate reader. Experimental data was processed by GraphPad Prism 7 to calculate IC50.

[1] = tested on: human EBC-1 cell subcutaneous xenograft model; test: In vivo anti-tumor assessment in EBC-1 cell xenograft tumor mouse model; set-up: species or system mice; conditions: 10 mg/kg P.O. QD × 15 days; for inhibition of growth of the tumor in mice (tumor volume change): end of the experiment, FIG. 2
Protocol: Experimental objective: To investigate in vivo efficacy of representative compounds on human lung squamous carcinoma cell (human EBC-1 cell) subcutaneous xenograft model.
Experimental methods: The EBC-1 cell xenograft tumor mouse model was used, according to the diameters of tumor, the tumor volume (TV), relative tumor volume (RTV), relative tumor proliferation rate (T/C (%)) and tumor growth inhibition value (TGI (%)) were calculated.
TGI (%) or T/C (%) of the compounds was evaluated. TGI (%) reflects a tumor growth inhibitory rate. TGI (%) was calculated as follows: TGI (%)=[1−(average tumor volume at the end of administration in a treatment group-average tumor volume at the beginning of administration in the treatment group)/(average tumor volume at the end in a solvent control group-average tumor volume at the beginning in the solvent control group)]×100%.
T/C (%) was calculated as follows: T/C (%)=TRTV/CRTV×100%; where TRTV is treatment RTV, and CRTV is negative control RTV. According to the measurement results of the tumor, RTV was calculated, and the calculating formula for RTV is as follows: RTV=Vt/V0; where V0 is the average tumor volume measured on the day of first administration; and Vt is the average tumor volume measured on a specified day. TRTV and CRTV were measured on the same day.

Vero cells = test: Anti-proliferation activity, CTG, Vero cells; format: cell-based
Protocol: as §1, §2, §3, §4

EBC-1 cells = test: Anti-proliferation activity, CTG, EBC-1 cells; format: cell-based, human
Protocol: as §1, §2, §3, §4

SPF Kunming mice = conditions: mouse, in vivo, po
MKN-45 cells = test: Anti-proliferation activity, CTG, MKN-45 cells; format: cell-based
Protocol: as §1, §2, §3, §4

c-MET = c-MET (Homo sapiens (Human), UniProt P08581); test: c-MET kinase inhibitory activity (ELISA, poly(Glu,Tyr) substrate); format: biochemical; conditions: read-out: c-MET kinase inhibitory enzymatic activity IC50
in vivo = conditions: both, Kunming, mouse, po
[2] = Homo sapiens, Hs746T cells, 48 h, CTG
[3] = Chlorocebus sabaeus, Vero cells, 48 h, CTG
[4] = Homo sapiens, EBC-1 cells, 48 h, CTG
[5] = Homo sapiens, MKN-45 cells, 48 h, CTG

Sequence of c-MET (P08581 25-1390): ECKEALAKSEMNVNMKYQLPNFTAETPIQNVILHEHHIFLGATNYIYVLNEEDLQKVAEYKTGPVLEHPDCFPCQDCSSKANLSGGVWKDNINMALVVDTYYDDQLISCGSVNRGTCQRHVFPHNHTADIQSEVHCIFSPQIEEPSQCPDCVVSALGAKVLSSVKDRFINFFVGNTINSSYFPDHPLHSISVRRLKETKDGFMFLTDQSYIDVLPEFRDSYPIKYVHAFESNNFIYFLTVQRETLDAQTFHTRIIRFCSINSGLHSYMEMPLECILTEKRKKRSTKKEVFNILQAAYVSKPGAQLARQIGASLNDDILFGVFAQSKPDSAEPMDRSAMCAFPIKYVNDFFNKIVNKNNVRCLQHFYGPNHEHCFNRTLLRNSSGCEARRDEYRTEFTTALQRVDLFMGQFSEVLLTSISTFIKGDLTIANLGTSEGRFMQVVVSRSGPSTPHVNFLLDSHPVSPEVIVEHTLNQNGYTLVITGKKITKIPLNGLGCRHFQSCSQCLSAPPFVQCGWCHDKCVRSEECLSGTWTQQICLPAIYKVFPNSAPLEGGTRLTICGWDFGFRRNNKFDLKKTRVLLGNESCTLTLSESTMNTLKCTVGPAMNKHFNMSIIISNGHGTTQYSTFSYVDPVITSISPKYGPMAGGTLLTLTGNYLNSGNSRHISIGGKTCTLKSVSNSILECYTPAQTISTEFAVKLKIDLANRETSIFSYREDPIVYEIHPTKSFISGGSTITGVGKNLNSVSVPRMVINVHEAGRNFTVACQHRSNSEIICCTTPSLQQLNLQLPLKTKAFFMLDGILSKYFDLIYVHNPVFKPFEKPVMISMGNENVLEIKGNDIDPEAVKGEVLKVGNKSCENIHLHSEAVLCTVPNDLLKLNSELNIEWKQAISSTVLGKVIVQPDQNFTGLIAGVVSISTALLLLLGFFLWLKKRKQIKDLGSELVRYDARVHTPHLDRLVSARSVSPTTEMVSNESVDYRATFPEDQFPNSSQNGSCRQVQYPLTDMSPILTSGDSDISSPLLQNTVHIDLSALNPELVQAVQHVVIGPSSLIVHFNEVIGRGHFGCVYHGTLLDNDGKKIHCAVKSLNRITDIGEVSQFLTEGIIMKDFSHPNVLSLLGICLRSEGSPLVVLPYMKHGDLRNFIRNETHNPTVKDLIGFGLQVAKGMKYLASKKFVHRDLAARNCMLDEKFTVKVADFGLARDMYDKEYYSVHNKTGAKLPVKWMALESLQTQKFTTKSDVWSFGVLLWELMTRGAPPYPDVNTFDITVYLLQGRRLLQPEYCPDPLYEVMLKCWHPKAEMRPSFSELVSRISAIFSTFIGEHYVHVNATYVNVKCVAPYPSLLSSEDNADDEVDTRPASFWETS

Structure (SMILES)	IC50 (Hs746T cells; Hs746T cells, 48 h, CTG) [nM]	IC50 (Vero cells; Vero cells, 48 h, CTG) [nM]	IC50 (EBC-1 cells; EBC-1 cells, 48 h, CTG) [nM]	LD50 (SPF Kunming mice) [mg/kg]	IC50 (MKN-45 cells; MKN-45 cells, 48 h, CTG) [nM]	IC50 (c-MET; ATP 4 μM, 37° C. 1 h) [nM]	IC50 (Hs746T cells; [2]) [nM]	IC50 (Vero cells; [3]) [nM]	LD50 (in vivo) [mg/kg]	IC50 (EBC-1 cells; [4]) [nM]	IC50 (MKN-45 cells; [5]) [nM]	further results
CNC(=S)c1ccc(-c2cnc3ncc(Cc4ccc5ncccc5c4)n3n2)cc1F [Compound 1]	1.6	129	1.4	293	1.5	0.0022						T/C(%) [1]: 15.09%; TGI(%) [1]: 103.24%; Tumor Volume (Day 15) [1]: 136 ± 17 mm^3; inhibition of growth of the tumor in mice (tumor volume change) [1]: better inhibitory effects
CN(C)C(=S)c1ccc(-c2cnc3ncc(Cc4ccc5ncccc5c4)n3n2)cc1F [Compound 2]						0.0019	1.4	126	284	1.2	1.1	
CC(C)NC(=S)c1ccc(-c2cnc3ncc(Cc4ccc5ncccc5c4)n3n2)cc1F [Compound 3]						0.0016	1.5	101	291	1.8	1.5	
Fc1cc(-c2cnc3ncc(Cc4ccc5ncccc5c4)n3n2)ccc1C(=S)NC1CC1 [Compound 4]						0.0025	1.4	216	320	1.8	1.9	
CNC(=S)c1ccc(-c2cnc3ncc(Cc4ccc5ncccc5c4)n3n2)c(F)c1 [Compound 5]	1.6	138	1.2	298	1.6	0.0021						
CNC(=S)c1cc(F)c(-c2cnc3ncc(Cc4ccc5ncccc5c4)n3n2)cc1F [Compound 6]	1.9	116	1.9	292	1.9	0.0015						
CNC(=S)c1ccc(-c2cnc3ncc(Cc4ccc5ncccc5c4)n3n2)c(F)c1F [Compound 7]	1.8	127	1.2	305	1.3	0.0022						
CNC(=S)c1ccc(-c2cnc3ncc(Cc4ccc5ncccc5c4)n3n2)cc1Cl [Compound 8]	1.8	142	1.8	321	1.7	0.0019						
CNC(=S)c1ccc(-c2cnc3ncc(Cc4ccc5ncccc5c4)n3n2)cc1N [Compound 9]						0.0017	1.4	252	297	1.6	1.8	
CNC(=S)c1ccc(-c2cnc3ncc(Cc4ccc5ncccc5c4)n3n2)cc1NC [Compound 10]						0.0016	1.5	164	292	1.9	1.8	
CNC(=S)c1ccc(-c2cnc3ncc(Cc4ccc5ncccc5c4)n3n2)cc1O [Compound 11]						0.0025	1.4	231	296	1.8	1.4	
CNC(=S)c1ccc(-c2cnc3ncc(Cc4ccc5ncccc5c4)n3n2)cc1OC [Compound 12]						0.0019	1.1	236	286	1.7	1.1	
CNC(=S)c1ccc(-c2cnc3ncc(Cc4cc(F)c5ncccc5c4)n3n2)cc1F [Compound 13]	1.4	152	1.7	314	1.2	0.0017						
CNC(=S)c1ccc(-c2cnc3ncc(Cc4cc(F)c5ncccc5c4F)n3n2)cc1F [Compound 14]						0.0026	1.1	226	291	1.2	1.5	
CNC(=S)c1ccc(-c2cnc3ncc(Cc4cc(Cl)c5ncccc5c4)n3n2)cc1F [Compound 15]	1.3	238	1.5	305	1.6	0.0013						
CNC(=S)c1ccc(-c2cnc3ncc(Cc4cc(C(F)(F)F)c5ncccc5c4)n3n2)cc1F [Compound 16]	1.7	156	1.3	296	1.3	0.0015						T/C(%) [1]: 17.98%; TGI(%) [1]: 99.73%; Tumor Volume (Day 15) [1]: 162 ± 23 mm^3; inhibition of growth of the tumor in mice (tumor volume change) [1]: better inhibitory effects
CNC(=S)c1ccc(-c2cnc3ncc(Cc4ccc5occc5c4)n3n2)cc1F [Compound 18]						0.0013	1.5	148	302	1.1	1.5	
CNC(=S)c1ccc(-c2cnc3ncc(Cc4ccc5scnc5c4)n3n2)cc1F [Compound 19]						0.0019	1.4	251	297	1.4	1.9	
CNC(=S)c1ccc(-c2cnc3ncc(Cc4ccc5c(c4)OCO5)n3n2)cc1F [Compound 20]						0.0021	1.2	164	305	1.8	1.1	
CNC(=S)c1ccc(-c2cnc3ncc(C(O)c4ccc5ncccc5c4)n3n2)cc1F (stereo not shown) [Compound 21]	1.1	132	1.3	298	1.2	0.0014						
CNC(=S)c1ccc(-c2cnc3ncc(C(=O)c4ccc5ncccc5c4)n3n2)cc1F [Compound 22]	1.8	231	1.7		1.5	0.0016						
CNC(=S)c1ccc(-c2cnc3ncc(C(OC)c4ccc5ncccc5c4)n3n2)cc1F (stereo not shown) [Compound 23]	1.4	157	1.1	320	1.7	0.0015						
CNC(=S)c1ccc(-c2cnc3ncc(C(c4ccc5ncccc5c4)N(C)C)n3n2)cc1F (stereo not shown) [Compound 25]				287								IC50 (Hs746T cells): 1.3 nM; IC50 (Vero cells): 192 nM; IC50 (EBC-1 cells): 1 nM; IC50 (MKN-45 cells): 1.3 nM; IC50 (c-MET): 0.0023 nM
CNC(=S)c1ccc(-c2cnc3ncc(C(N)c4ccc5ncccc5c4)n3n2)cc1F (stereo not shown) [Compound 26]	1.1	282	1.8	295	1.1	0.0017						
CNC(=S)c1ccc(-c2cnc3ncc(/C(=N/OC)c4ccc5ncccc5c4)n3n2)cc1F [Compound 27]	1.8	163	1.5	310	1.3	0.0019						
CNC(=S)c1ccc(-c2cnc3ncc(C(F)(F)c4ccc5ncccc5c4)n3n2)cc1F [Compound 28]	1.4	237	1.2	294	1.5	0.0018						
